Experimental data taken from patent US9439910B2, “Fe(III)-pyrazine complex compounds for treatment and prophylaxis of iron-deficiency phenomena and iron-deficiency anaemia” (VIFOR (INTERNATIONAL) AG, priority 2012, dated 2016).

Test system: Male NMRI (SPF) mice
Experiment: Fe utilization in mouse model (low-iron diet, oral administration by stomach tube)
Assay type: in vivo
Details: for Utilization n 15 d: mice fed low-iron diet (approx. 5 ppm iron) approx. 3 weeks, 2 mg iron/kg body weight/day by stomach tube, days 1-5 and 8-12, utilization on day 15 calculated from hemoglobin increase and body weight increase; for iron utilization compared to the pyridine comparative compound: same mouse model, comparison in words with the comparative example
Description: The excellent Fe utilizations that can be accomplished through the Fe complexes according to the invention were measured by means of the following mouse model. Male NMRI (SPF) mice (approximately 3 weeks old) were fed a low-iron diet (approx. 5 ppm iron) for approximately 3 weeks. The iron complexes were then administered to them by means of a stomach tube (2 mg iron/kg body weight/day) for 2 times 5 days, with an interruption of 2 days (days 1-5 and 8-12). 6 mice were the control group (negative control) and were administered with water instead. Utilization on day 15 was calculated from the hemoglobin increase and the body weight increase in accordance with the formula [formula]

Substance | Utilization n 15 d | iron utilization compared to the pyridine comparative compound
Tris-(3,5,6-trimethylpyrazine-2-ol-1-oxide)iron(III)-complex [Example 4] | 32 abs. % | improved iron utilization
Tris-(3,6-dimethylpyrazine-2-ol-1-oxide)-iron(III)-complex [Example 10] | 58 abs. % | improved iron utilization
Tris-(3-methylpyrazine-2-ol-1-oxide)iron(III)-complex [Example 3] | 77 abs. % | improved iron utilization
Tris-(5,6-dimethyl pyrazine-2-ol 1-oxide)iron(III)-complex [Example 2] | 61 abs. % | improved iron utilization
Tris-(5-methylpyrazine-2-ol-1-oxide)iron(III)-complex [Example 5] | 37 abs. % | improved iron utilization
Tris-(pyrazine-2-ol 1-oxide)iron(III)-complex [Example 1] | 56 abs. % | significantly improved iron utilization
